Data published in PubChem BioAssay AID687000 (Broad Institute, 2013).
Several values for one entry are separate records, joined by “and”; a condition that tells them apart may be missing. Equal values may be shown once. Activity calls are given as the source filed them.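 The calls were made as follows: active = fitted dose curve reaches 40% lysis signal rise at or below the highest valid concentration tested for that sample; inconclusive = flat fit between 30% and 70%, or poor curve fit; inactive = signal falls, stays flat within 30%, or no crossing.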

Tested on: C. neoformans lysis, adenylate kinase release luminescence, 4 h
Experiment: C. neoformans lysis by adenylate kinase leakage – AK release luminescence, cherry-picks, dose response (AID 687000)

SMILES | AC40
C[C@@H]1CCCCO[C@@H](CN(C)C(=O)CCCN(C)C)[C@@H](C)CN([C@H](C)CO)C(=O)c2cc(NC(=O)Cc3ccccc3)ccc2O1 | 14.8 µM
COC(=O)C1=C(C)N(Cc2ccc(Br)cc2)C(=S)NC1c1cccc(Cl)c1 (stereo not drawn) | 1.17 µM
O=C(COC(=O)CCC1CCCC1)Nc1nc2c(F)c(F)c(F)cc2s1 | > 15 µM (inactive)
C[C@@H]1CCCCO[C@@H](CN(C)C(=O)Nc2ccc3c(c2)OCO3)[C@@H](C)CN([C@H](C)CO)C(=O)c2cc(NC(=O)Nc3cccc4ccccc34)ccc2O1 | > 15 µM (inactive)
CC=Cc1ccc2n(c1=O)C[C@@H]1[C@@H](CO)[C@H](C(=O)N3CCc4ccccc4C3)N(C(=O)C3CC3)[C@H]21 (mixture of isomers) | > 15 µM (inactive)
O=C(NC(=S)Nc1ccccc1N1CCCC1)c1ccc([N+](=O)[O-])cc1 | 2.09 µM
COC(=O)C1=C(C)N(Cc2ccc(Cl)cc2)C(=S)NC1c1cccc(F)c1 (stereo not drawn) | 13.1 µM
CC(C)c1ccccc1NC(=S)NN(Cc1ccccc1)c1ccccc1 | > 15 µM (inactive)
COC(=O)C1=C(C)N(Cc2ccccc2)C(=S)NC1c1ccc(Cl)cc1 (stereo not drawn) | 2.45 µM
O=C(NC1CCCCC1)N[C@H]1C=C[C@@H](CC(=O)N2CCOCC2)O[C@@H]1CO | > 15 µM (inactive)
C[C@H](CO)N1C[C@H](C)[C@@H](CN(C)C(=O)c2ccncc2)OCCCC[C@H](C)Oc2ccc(NC(=O)Cc3ccccc3)cc2C1=O | > 15 µM (inactive)
O=C(NC(=S)Nc1cccc(F)c1)c1cccc([N+](=O)[O-])c1 | 3.02 µM
COc1cccc(S(=O)(=O)Nc2ccc3c(c2)[C@H]2C[C@H](CC(=O)N(C)C)O[C@@H](CO)[C@H]2O3)c1 | > 15 µM (inactive)
Cc1noc(C)c1NC(=O)Nc1ccc2c(c1)C(=O)N([C@@H](C)CO)C[C@H](C)[C@H](CN(C)CC1CCCCC1)O2 | > 15 µM (inactive)
CCCC(=O)Nc1ccc2c(c1)C(=O)N(C)C[C@H](OC)[C@@H](C)CN(C(=O)c1cccnc1)[C@@H](C)CO2 | > 15 µM (inactive)
COc1ccc(C(=O)NC(=S)Nc2ccccc2N2CCCCC2)cc1[N+](=O)[O-] | 3.29 µM
C[C@@H]1CN([C@@H](C)CO)C(=O)c2cc(NS(=O)(=O)c3cn(C)cn3)ccc2O[C@@H](C)CCCCO[C@@H]1CN(C)Cc1ccc(C(F)(F)F)cc1 | > 15 µM (inactive)

SMILES | AC40
C[C@H](CO)N1C[C@H](C)[C@H](CN(C)C(=O)Nc2cccc3ccccc23)Oc2ccc(NC(=O)Cc3ccccc3)cc2CC1=O | > 15 µM (inactive)
COC(=O)C1=C(C)N(Cc2ccc(Cl)cc2)C(=S)NC1c1ccc(F)cc1 (stereo not drawn) | 2.23 µM and 3.73 µM
Cc1cccc2sc(N3CCN(C(=O)c4cccs4)CC3)nc12 | > 15 µM (inactive)
O=C(NC(=S)Nc1cc(Cl)ccc1N1CCOCC1)c1ccccc1[N+](=O)[O-] | 13.6 µM
CCCC(=O)Nc1ccc2c(c1)C(=O)N(C)C[C@H](OC)[C@@H](C)CN(C(=O)c1cccnc1)[C@H](C)CO2 | 13.7 µM
S=C(Nc1cccc(Cl)c1)Nc1ccccc1Oc1ccccc1 | > 15 µM (inactive)
COc1cccc(C(=O)NC(=S)Nc2ccccc2N2CCOCC2)c1 | > 15 µM (inactive)
COc1ccc(CN(C)C[C@H]2Oc3ccc(NC(=O)Nc4ccc(F)cc4)cc3CC(=O)N([C@@H](C)CO)C[C@@H]2C)cc1 | > 16 µM (inactive)
COC(=O)C1=C(C)N(Cc2ccccc2)C(=O)N[C@H]1c1cccc(F)c1 | > 15 µM (inactive)
CCN(Cc1ccccc1)C(=O)COc1ccccc1 | > 15 µM (inactive)
C[C@H]1CN([C@@H](C)CO)C(=O)c2cc(-c3ccc(F)cc3)cnc2O[C@@H]1CN(C)CC1CCCCC1 | > 15 µM (inactive)
COc1cc2c(C(=O)N(C)c3cc(Cl)ccc3OC)cn(C)c(=O)c2cc1OC | > 15 µM (inactive)
Cc1cc(Cl)ccc1NC(=S)NCc1ccc(F)cc1 | 2.25 µM
COc1ccccc1CNC(=S)NCc1ccc(Cl)cc1 | 2.03 µM
NC(=S)N/N=C/c1ccc(-c2cc(Cl)ccc2Cl)o1 | 0.644 µM
O=C(CC1CC1)N1[C@@H]2CN(S(=O)(=O)c3ccccc3)c3ccccc3[C@@H]2[C@@H]1CO | > 16 µM (inactive)
